System: CART19 cells
Experiment: RNA sequencing of CART19 cells with Ingenuity pathway analysis (pathways, upstream regulators)
Format: cell-based, human
Conditions: for Expr Log Ratio / Activation Z-Score / Predicted Activation State: 30 nM, 24 hours vs vehicle
Experimental: CART19 cells were isolated using CD4 and CD8 microbeads to […] the JeKo-1 target cells; this isolation step was performed twice to eliminate the possible contamination of JeKo-1 cells. RNA was isolated from the CART19 cells using QIAGEN RNEASY® Plus Mini Kit. RNA was further treated with DNase I (QIAGEN) and purified using RNA Clean & Concentrator (Zymo Research). […] The fastq files were viewed in FastQC to check for quality (Cox et al., Mol Ther., 29 (4): 1529-1540, 2020). After verifying the lack of adapter sequences with FastQC, Cutadapt (Martin, EMBnet, 17:10-12, 2011) was used to filter for reads greater than 32 base pairs. Output files were re-checked for quality using FastQC. The latest human reference genome (GRCh38.p13) was downloaded from NCBI. Genome index files were generated using STAR (Cox et al. 2020, supra, and Dobin et al., Bioinformatics, 29:15-21, 2012). Paired end reads from fastq files were mapped to the genome for each condition. HTSeq was used to generate expression counts for each gene (Cox et al. 2020, supra; and Putri et al., Bioinformatics, 38:2943-2945, 2022). […] The disruption efficiency of the CRISPR/Cas9 GM-CSF knockout was determined using targeted sequencing through PCR and TIDE analysis (software available at tide.nki.nl) as described elsewhere (Sakemura et al. 2021, supra).
RNA sequencing of CART19 cells was then performed. […] Data were analyzed with the use of QIAGEN Ingenuity Pathway Analysis (IPA) (digitalinsights.qiagen.com/IPA; Krämer et al., Bioinformatics 30 (4): 523-530, 2014).

[1] = CART19+JeKo-1, 30 nM TP-0903 vs vehicle, 24 h
[2] = CART19+JeKo-1, 30 nM TP-0903 vs vehicle, 24 h, flag bias
[3] = Upstream Regulator BRD4 (second entry, r376)

CN1CCN(Cc2ccc(Nc3ncc(Cl)c(Nc4ccccc4S(=O)(=O)N(C)C)n3)cc2)CC1 [TP-0903, Dubermatinib]
upstream regulator SREBF1 Predicted Activation State [1]: inhibited | upstream regulator SREBF2 Activation Z-Score [1]: −1.433 | upstream regulator SUCNR1 Activation Z-Score [1]: 0 | upstream regulator TEAD3 Activation Z-Score [1]: −1.633 | upstream regulator TERT Activation Z-Score [1]: −1.412 | upstream regulator TGFB1 Activation Z-Score [1]: −1.429 | upstream regulator TGFB3 Activation Z-Score [1]: −0.894 | upstream regulator TGFBR2 Activation Z-Score [1]: 0.658 | upstream regulator TLR2 Activation Z-Score [1]: −1.417 | upstream regulator TLR7 Predicted Activation State [1]: inhibited | upstream regulator TNFRSF4 Activation Z-Score [1]: −1.098 | upstream regulator TNFSF15 Activation Z-Score [1]: −0.425 | upstream regulator TRAF3 Activation Z-Score [1]: −0.656 | upstream regulator TREM1 Activation Z-Score [1]: −0.093 | upstream regulator VEGF Activation Z-Score [1]: −0.81 | upstream regulator WNT1 Activation Z-Score [1]: −1.387 | upstream regulator YAP1 Activation Z-Score [1]: 0.591 | upstream regulator COMMD1 Activation Z-Score [2]: 2 | upstream regulator CSF Activation Z-Score [2]: −0.816 | upstream regulator EGLN Activation Z-Score [2]: 1.793 | upstream regulator IKZF2 Activation Z-Score [2]: 0.447 | upstream regulator MIR-17-5P (AND OTHER MIRNAS W/SEED AAAGUGC) Activation Z-Score [2]: 1.449 | upstream regulator MIR-450A-5P (AND OTHER MIRNAS W/SEED UUUGCGA) Activation Z-Score [2]: 2.236 | upstream regulator MLXIPL Activation Z-Score [2]: −3.101 | upstream regulator PAF1 Activation Z-Score [2]: 0.762 | upstream regulator TLR7 Activation Z-Score [2]: −2 | upstream regulator TPH1 Activation Z-Score [2]: −1.89 | Expr Log Ratio (Upstream Regulator ADAM8): −0.008 | Activation Z-Score (Upstream Regulator ADRB): 1.616 | Activation Z-Score (Upstream Regulator AHR): −0.104 | Expr Log Ratio (Upstream Regulator AHR): −0.083 | Activation Z-Score (Upstream Regulator AKT): −2.79 | Predicted Activation State (Upstream Regulator AKT): inhibited | Activation Z-Score (Upstream Regulator AREG): −2.287 | Expr Log Ratio (Upstream Regulator AREG): 1.429 | Predicted Activation State (Upstream Regulator AREG): inhibited | Activation Z-Score (Upstream Regulator BHLHE40): −0.158 | Expr Log Ratio (Upstream Regulator BHLHE40): 0.043 | Expr Log Ratio (Upstream Regulator BIRC5): −0.028 | Activation Z-Score (Upstream Regulator BNIP3L): −1.463 | Expr Log Ratio (Upstream Regulator BNIP3L): −0.47 | Activation Z-Score (Upstream Regulator BRD4 (first entry, r300, no Expr Log Ratio)): −0.213 | Activation Z-Score [3]: −2.16 | Expr Log Ratio [3]: −0.067 | Predicted Activation State [3]: inhibited | Activation Z-Score (Upstream Regulator CASP8): 1.72 | Expr Log Ratio (Upstream Regulator CASP8): 0.141 | Activation Z-Score (Upstream Regulator CD3): −1.272 | Activation Z-Score (Upstream Regulator CD40): −0.284 | Expr Log Ratio (Upstream Regulator CD40): −0.283 | Activation Z-Score (Upstream Regulator CDKN2A): 0.421 | Expr Log Ratio (Upstream Regulator CDKN2A): −0.27 | Activation Z-Score (Upstream Regulator CREB1): −0.611 | Expr Log Ratio (Upstream Regulator CREB1): −0.112 | Activation Z-Score (Upstream Regulator CREM): 0.286 | Expr Log Ratio (Upstream Regulator CREM): 0.351 | Activation Z-Score (Upstream Regulator CSF1): −1.71 | Expr Log Ratio (Upstream Regulator CSF1): −0.377 | Activation Z-Score (Upstream Regulator CSF2): −2.255 | Expr Log Ratio (Upstream Regulator CSF2): −0.066 | Predicted Activation State (Upstream Regulator CSF2): inhibited | Activation Z-Score (Upstream Regulator CTNNB1): −2.082 | Expr Log Ratio (Upstream Regulator CTNNB1): −0.154 | Predicted Activation State (Upstream Regulator CTNNB1): inhibited | Activation Z-Score (Upstream Regulator DDIT4): −0.816 | Expr Log Ratio (Upstream Regulator DDIT4): −0.248 | Activation Z-Score (Upstream Regulator EGF): −1.744 | Expr Log Ratio (Upstream Regulator EIF2S1): 0.079 | Activation Z-Score (Upstream Regulator ELAVL1): −1.431 | Expr Log Ratio (Upstream Regulator ELAVL1): 0.045 | Activation Z-Score (Upstream Regulator EPAS1): −0.365 | Expr Log Ratio (Upstream Regulator EPAS1): −0.784 | Activation Z-Score (Upstream Regulator ETS1): −1.485 | Expr Log Ratio (Upstream Regulator ETS1): 0.129 | Activation Z-Score (Upstream Regulator FOXP3): 1.094 | Expr Log Ratio (Upstream Regulator FOXP3): −0.21 | Expr Log Ratio (Upstream Regulator GNAQ): −0.381 | Activation Z-Score (Upstream Regulator GNAS): 0.898 | Expr Log Ratio (Upstream Regulator GNAS): 0.075 | Activation Z-Score (Upstream Regulator HDL-CHOLESTEROL): 1.89 | Activation Z-Score (Upstream Regulator HIF1A): −1.763 | Expr Log Ratio (Upstream Regulator HIF1A): 0.181 | Activation Z-Score (Upstream Regulator HRAS): −1.187 | Activation Z-Score (Upstream Regulator ID2): 1.609 | Expr Log Ratio (Upstream Regulator ID2): 0.114 | Activation Z-Score (Upstream Regulator IFN BETA): −0.892 | Activation Z-Score (Upstream Regulator IFNG): −2.044 | Expr Log Ratio (Upstream Regulator IFNG): −0.559 | Predicted Activation State (Upstream Regulator IFNG): inhibited | Activation Z-Score (Upstream Regulator IGG): 1.765 | Activation Z-Score (Upstream Regulator IL1B): −1.164 | Expr Log Ratio (Upstream Regulator IL1B): 0.19 | Activation Z-Score (Upstream Regulator IL2): −1.669 | Expr Log Ratio (Upstream Regulator IL2): −0.397 | Activation Z-Score (Upstream Regulator IL3): −1.125 | Expr Log Ratio (Upstream Regulator IL3): −0.843 | Activation Z-Score (Upstream Regulator IL4): −3.271 | Expr Log Ratio (Upstream Regulator IL4): −1.068 | Predicted Activation State (Upstream Regulator IL4): inhibited | Activation Z-Score (Upstream Regulator IL5): −1.165 | Expr Log Ratio (Upstream Regulator IL5): −1.157 | Activation Z-Score (Upstream Regulator IL6): −2.441 | Expr Log Ratio (Upstream Regulator IL6): −1.319 | Predicted Activation State (Upstream Regulator IL6): inhibited | Activation Z-Score (Upstream Regulator IL13): −1.489 | Expr Log Ratio (Upstream Regulator IL13): 0 | Activation Z-Score (Upstream Regulator IL17A): 0.354 | Expr Log Ratio (Upstream Regulator IL17A): −0.356 | Activation Z-Score (Upstream Regulator IL33): −1.508 | Activation Z-Score (Upstream Regulator IMMUNOGLOBULIN): 0.465 | Expr Log Ratio (Upstream Regulator ITGA11): −0.167 | Activation Z-Score (Upstream Regulator ITGA11, flag bias): −1 | Activation Z-Score (Upstream Regulator KLF11): −2.333

— patent US20260286396A1, “AXL KNOCK OUT CAR T CELLS AND METHODS FOR USE THEREOF” (priority 2023, published 2026)
